# Reference: article PMC3388080 (PLoS ONE, 2012)
# Where two headings read alike, the source gives them in different places.
# Experiments:
# rHCRTR1 [1] = biological target: T1, rHCRTR1 (Rattus norvegicus, UniProt P56718); experiment: Inhibition of [^3H]almorexant binding to HEK293-rHCRTR1 membranes; conditions: read-out: Ki
# T1 construct: expressed in transfected cells; host or cells: HEK293 (transient transfection, pCI-Neo vector), membrane preparation
# T1 sequence (P56718 1-416): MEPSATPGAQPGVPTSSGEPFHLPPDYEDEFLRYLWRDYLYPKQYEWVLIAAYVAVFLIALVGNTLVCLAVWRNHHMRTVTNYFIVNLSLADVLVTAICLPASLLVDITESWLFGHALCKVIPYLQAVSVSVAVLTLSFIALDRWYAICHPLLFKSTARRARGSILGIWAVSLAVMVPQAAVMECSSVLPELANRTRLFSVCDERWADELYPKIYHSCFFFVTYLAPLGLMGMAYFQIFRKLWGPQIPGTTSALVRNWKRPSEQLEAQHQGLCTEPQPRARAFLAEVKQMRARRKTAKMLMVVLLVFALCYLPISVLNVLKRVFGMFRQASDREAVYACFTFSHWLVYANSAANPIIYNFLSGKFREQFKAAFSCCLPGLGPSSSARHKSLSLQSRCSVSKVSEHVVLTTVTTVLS
# Excerpt: (§1) The rat cDNAs encoding HCRTR1 (Accession No. P56718) and HCRTR2 (Accession No. P56719) were subcloned into pCI-Neo expression vectors (Promega, Madison, WI) and used to transfect HEK293 cells (acquired commercially from ATCC-LGC, Molsheim, France) as previously described.
# rHCRTR2 = biological target: T2, rHCRTR2 (Rattus norvegicus, UniProt P56719); experiment: Inhibition of [^3H]almorexant binding to HEK293-rHCRTR2 membranes
# T2 construct: expressed in transfected cells; host or cells: HEK293 (transient transfection, pCI-Neo vector), membrane preparation
# T2 sequence (P56719 whole entry): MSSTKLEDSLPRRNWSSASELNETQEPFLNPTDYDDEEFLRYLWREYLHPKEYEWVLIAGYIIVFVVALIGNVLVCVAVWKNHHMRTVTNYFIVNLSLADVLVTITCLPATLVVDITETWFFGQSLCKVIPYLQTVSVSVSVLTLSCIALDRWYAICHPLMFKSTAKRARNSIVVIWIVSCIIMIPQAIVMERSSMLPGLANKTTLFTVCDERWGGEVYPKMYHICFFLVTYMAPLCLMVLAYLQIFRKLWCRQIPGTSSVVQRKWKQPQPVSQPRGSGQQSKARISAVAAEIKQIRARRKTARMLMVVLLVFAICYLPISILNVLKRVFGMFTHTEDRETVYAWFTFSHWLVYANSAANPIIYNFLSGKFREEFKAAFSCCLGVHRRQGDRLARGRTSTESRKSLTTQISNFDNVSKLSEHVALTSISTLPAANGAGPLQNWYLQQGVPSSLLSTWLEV
# Excerpt: as §1
# in vivo = conditions: rat, in vivo
# Experimental: (§2) Pharmacokinetic analyses were performed at F. Hoffmann-La Roche as described in supporting Materials and Methods S1.
# (§3) Cmax, maximum concentration; Tmax, time at which maximum concentration was observed; AUC, area under the plasma concentration vs. time curve; CL, clearance; Vss, volume of distribution at steady state; T1/2, terminal half-life; F, bioavailability; Fu, Fraction unbound. Plasma values are mean, n=2.
# in vitro [2] = conditions: human, plasma
# Experimental: as §2
# in vitro [3] = conditions: rat, plasma
# Experimental: as §2, §3
# [4] = Stability in human plasma
# Experimental: as §2
# Stability in rat plasma = experiment: Stability in rat plasma
# Experimental: as §2
# rHCRTR1 [5] = biological target: T1, rHCRTR1; design: method as in PMID 14691055; conditions: cited from earlier work
# [6] = design: method as in PMID 19363060; conditions: 30 mg/kg, cited from earlier work
# HCRTR1 = biological target: T3, HCRTR1 (Rattus norvegicus, UniProt P56718); design: method as in PMID 19363060; conditions: subcutaneous 30 mg/kg; tenia tecta; cited from earlier work
# T3 construct: from tissue; host or cells: coronal brain sections of male Sprague-Dawley rats (locus coeruleus)
# T3 sequence (P56718 1-416): T1 sequence (P56718 1-416)
smiles,measurement,setting,value
"Cc1cc(NC(=O)Nc2ccc(N(C)C)cc2)c2cc(F)cc(F)c2n1 [SB-408124, 1-(6,8-difluoro-2-methyl-quinolin-4-yl)-3-(4-dimethylamino-phenyl)-urea]",Ki,rHCRTR1 [1],45.7 ± 4.1 nM
same,Ki,rHCRTR2,5370 ± 2200 nM
same,AUC/Dose,"in vivo; Wistar, iv",7996.40 ng/h/mL
same,Tmax,"in vivo; Wistar, iv",0 h
same,Vd,"in vivo; Wistar, iv",0.2 L/kg
same,clearance,"in vivo; Wistar, iv",2.1 mL/min/kg
same,half-life,"in vivo; Wistar, iv",1.12 h
same,Cmax/Dose,"in vivo; Wistar, iv, 12.1 mg/kg",4738.30 ng/mL
same,AUC/Dose,"in vivo; Wistar, po",3455.70 ng/h/mL
same,Tmax,"in vivo; Wistar, po",2.67 h
same,bioavailability,"in vivo; Wistar, po",43.2%
same,half-life,"in vivo; Wistar, po",1.95 h
same,Cmax/Dose,"in vivo; Wistar, po, 18.16 mg/kg",704.8 ng/mL
same,Vss (in words),in vivo,low
same,systemic plasma clearance (in words),in vivo,low
same,oral bioavailability (in words),in vivo; po,medium
same,fraction unbound,in vitro [2],0.003
same,fraction unbound,in vitro [3],< 0.001
same,stability in plasma,[4]; 1 h,94%
same,stability in plasma,[4]; 4 h,88%
same,stability in plasma,Stability in rat plasma; 1 h,101%
same,stability in plasma,Stability in rat plasma; 4 h,107%
same,Ki,rHCRTR1 [5],26.9 nM
same,brain-to-plasma ratio,[6]; calculated from Cmax values,0.012
same,Cmax,[6]; read-out: plasma Cmax,84.3 µM
same,HCRTR1 occupancy,HCRTR1,90%
